# Source: ChEMBL document CHEMBL1158253, “Isolation and structure of hemibastadinols 1-3 from the Papua New Guinea marine sponge Ianthella basta” (1996)
# The source made the active and inactive calls. The rule behind the calls is not given here.
# Experiments:
# [1] = system: Neisseria gonorrhoeae; assay: Antimicrobial activity against Neisseria gonorrhoeae ATCC 49226 after 16 hrs by disk susceptibility test; assay type: functional
# [2] = system: Staphylococcus aureus; assay: Antimicrobial activity against Staphylococcus aureus ATCC 29213 after 16 hrs by disk susceptibility test; assay type: functional
# [3] = system: Candida albicans; assay: Antimicrobial activity against Candida albicans ATCC 90028 up to 100 ug/disk after 42 hrs by disk susceptibility test; assay type: functional, organism-based
# [4] = system: Cryptococcus neoformans; assay: Antimicrobial activity against Cryptococcus neoformans ATCC 90112 up to 100 ug/disk after 42 hrs by disk susceptibility test; assay type: functional, organism-based
# [5] = system: Escherichia coli; assay: Antimicrobial activity against Escherichia coli ATCC 25922 up to 100 ug/disk after 16 hrs by disk susceptibility test; assay type: functional, organism-based
# [6] = system: Enterococcus faecalis; assay: Antimicrobial activity against Enterococcus faecalis ATCC 29212 after 16 hrs by disk susceptibility test; assay type: functional
structure (smiles),measurement,setting,value
COc1ccc(C/C(=N/O)C(=O)NCCc2ccc(O)c(Br)c2)cc1Br,MIC,[1],6.25 µg
same,MIC,[2],6.25 µg
same,Activity,[3],inactive
same,Activity,[4],inactive
O=C(NCCc1ccc(O)c(Br)c1)/C(Cc1ccc(Oc2cc(C/C(=N/O)C(=O)NCCc3ccc(O)c(Br)c3)cc(Br)c2O)c(Br)c1)=N\O [BASTADIN1],Activity,[5],inactive
same,MIC,[1],50 µg
same,MIC,[6],12.5 µg
same,MIC,[2],6.25 µg
same,Activity,[3],inactive
same,Activity,[4],inactive
O=C(NCCc1ccc(O)c(Br)c1)/C(Cc1cc(Br)c(O)c(-c2cc(C/C(=N/O)C(=O)NCCc3ccc(O)c(Br)c3)cc(Br)c2O)c1)=N\O [BASTADIN 3],MIC,[1],0.78 µg
same,MIC,[6],3.12 µg
same,MIC,[2],1.56 µg
same,Activity,[3],inactive
same,Activity,[4],inactive
O=C1NCCc2cc(Br)c(O)c(c2)Oc2ccc(cc2Br)CCNC(=O)/C(=N\O)Cc2cc(Br)c(O)c(c2)Oc2c(Br)cc(cc2Br)C/C1=N/O [BASTADIN 5],MIC,[1],50 µg
same,MIC,[6],50 µg
same,MIC,[2],12.5 µg
same,Activity,[3],inactive
same,Activity,[4],inactive
O=C(NCCc1ccc(O)c(Br)c1)/C(Cc1cc(Br)c(O)c(Br)c1)=N\O [HEMIBASTADIN 2],MIC,[1],3.12 µg
same,MIC,[2],3.12 µg
same,Activity,[3],inactive
same,Activity,[4],inactive
O=C(NCCc1ccc(O)c(Br)c1)/C(Cc1ccc(O)c(Br)c1)=N\O [HEMIBASTADIN 1],MIC,[1],12.5 µg
same,MIC,[6],50 µg
same,MIC,[2],1.56 µg
same,Activity,[3],inactive
same,Activity,[4],inactive
NC(=O)C(=O)NCCc1ccc(O)c(Br)c1,MIC,[1],10 µg
same,Activity,[3],inactive
same,Activity,[4],inactive
O=C1N/C=C/c2ccc(c(Br)c2)Oc2cc(cc(Br)c2O)CCNC(=O)/C(=N/O)Cc2cc(Br)c(c(Br)c2)Oc2cc(cc(Br)c2O)C/C1=N\O [BASTADIN 4],MIC,[1],12.5 µg
same,MIC,[6],50 µg
same,MIC,[2],12.5 µg
same,Activity,[3],inactive
same,Activity,[4],inactive
O=C1NCCc2cc(Br)c(O)c(c2)Oc2c(Br)cc(cc2Br)CCNC(=O)/C(=N/O)Cc2cc(Br)c(O)c(c2)Oc2c(Br)cc(cc2Br)C/C1=N\O [BASTADIN 6],MIC,[6],12.5 µg
same,MIC,[2],6.25 µg
same,Activity,[3],inactive
same,Activity,[4],inactive
O=C(NCCc1ccc(O)c(Br)c1)/C(Cc1cc(Br)c(O)c(Oc2c(Br)cc(C/C(=N\O)C(=O)NCCc3ccc(O)c(Br)c3)cc2Br)c1)=N\O [BASTADIN 2],MIC,[1],50 µg
same,MIC,[6],50 µg
same,MIC,[2],6.25 µg
same,Activity,[3],inactive
same,Activity,[4],inactive
O=C(NCCc1ccc(O)c(Br)c1)[C@@H](O)Cc1ccc(O)c(Br)c1 [HEMIBASTADINOL 1],MIC,[1],50 µg
same,MIC,[6],50 µg
same,Activity,[3],inactive
same,Activity,[4],inactive
